Results as given in PMC12635975, “Peptide-Based Fluorescent Biosensing System for the Detection of the Melanoma Biomarker S100B” (Bioconjugate Chemistry, 2025).
One block for each molecule: values may come before it.

How the values were obtained:
S100B = target: T1, S100B (Homo sapiens, UniProt P04271); details: ref literature (citation numbers not shown in text); read-out: binding affinity K d; cited from earlier work
T1 construct: purchased Abbexa abx060130
T1 sequence (P04271 1-92): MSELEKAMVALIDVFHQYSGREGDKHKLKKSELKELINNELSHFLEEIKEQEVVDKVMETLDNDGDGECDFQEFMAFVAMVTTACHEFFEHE
Excerpt: (§1) It interacts with S100B through a combination of hydrophobic and electrostatic interactions, stabilizing the protein structure and enhancing calcium-ion-binding affinity. […] By integrating TRTK12 into advanced optical biosensing systems, ...

other S100 proteins = details: unlike other peptides; ref literature (citation numbers not shown in text); cited from earlier work
Excerpt: as §1

[1] = target: fluorescently labeled peptide-nucleic acid (PNA) beacon with the peptide TRTK12 as the biorecognition element; assay: other fluorescence titration; beacon fixed at 500 nM, S100B 0-100 nM; donor (5-FAM) emission of the FAM/Dabcyl FRET beacon, excitation 499 nm; 50 mM Tris-HCl pH 7.0, 240 mM NaCl, 20 mM CaCl2; 35 °C; 60 min incubation; two-site binding model fitted to the calibration curve

Molecule: TRTKIDWNKILS [TRTK12]
Kd (S100B): ~260 nM
cross-reactivity (other S100 proteins): minimal cross-reactivity with other S100 proteins

half-saturation constant of the high-affinity site (two-site binding model) [1]: 0.145 nM
half-saturation constant of the lower-affinity site (two-site binding model) [1]: 364 nM
B1: S100B protein (natural protein)
chain: T1 sequence (P04271 1-92)
